Consider 19 compounds from patent US20260317312A1, “ISOXAZOLIDINES AS RIPK1 INHIBITORS AND USE THEREOF” (GENZYME CORPORATION, priority 2023, published 2026).

One assay concerns U937 cells. Nature of the assay: Cellular assay in U937 cells to measure activity of RIPK1-inhibitors on cell death (necroptosis). It counts as cell-based. Particulars: overnight (18 to 24 hrs), 37° C., MTS readout. From the text: Upon TNF-Receptor I ligation, Ser/Thr kinase RIPK1 is recruited to a transient receptor complex I. Upon modification of RIPK1 which promotes activation of RIPK1, complex lib can form, that involves recruitment of RIPK3 and MLKL (mixed lineage-kinase domain-like protein) which then translocates from the cytosol to the plasma membrane to execute cell death (Cai, Z. et al, Nat. Cell Biol. (2014)16:55-65).
Cell death was quantified in 96 well plates by determination of the amount of live cell using a CellTiter 96 Aqueous reagent (Promega), a calorimetric method to measure the number of live cells by reducing tetrazolium compound [3-(4,5-dimethylthiazol-2-yl)-5-(3-carboxymethoxyphenyl)-2-(4-sulfophenyl)-2H-tetrazolium, inner salt; MTS] into formazan. Absorbance of formazan was read at 490 nm. The inhibitory activity of the test compound was quantified in a concentration response curve (CRC) experiment.
Compounds were obtained as 10 mM stock solutions and were diluted 1 to 10 volumes with DMSO to yield a 1 mM solution. From this solution 2 μl were diluted with 998 μl growth medium. 100 μl of 2 μM compound solution was further diluted sequentially with a dilution factor of 2.5 by adding 150 μl growth medium. A total of 10 concentrations were tested ranging from 10 μM to 0.26 nM or from 1 μM to 0.07 nM.
U937 cells were cultured in RPM11640 Glutamax and 10% heat inactivated FBS. 50 μl cell suspension containing 1×10^6 cells/ml supplemented with 50 μM zVAD.fmk (Benzyloxycarbonyl-Val-Ala-Asp (Ome) fluoromethylketone) and 100 ng/ml recombinant human TNFα were dispensed in each well of a 96-well plate. 50 μl of compound dilutions (described in Cellular assay in U937 cells) were added and the cell suspension incubated overnight (18 to 24 hrs) at 37° C., 5% CO2 in a humidified atmosphere (95% rH). High (no compound) and low control (no TNFα, zVAD.fmk) were tested with 7 replicates; all compound concentrations were tested in duplicates on each experimental plate.
CellTiter 96 Aqueous reagent was mixed (100 μl PMS (phenazine methosulfate) solution/2 ml MTS (3-(4,5-[…])-5-(3-carboxymethoxyphenyl)-2-(4-sulfophenyl)-2H-tetrazolium, inner salt) solution) and 20 μl were added per well. After 4 hrs incubation at 37° C. (5% CO2 95% rH) optical density was measured at 490 nm on a microplate reader (Tecan Infinite M1000).
The % inhibition is expressed as percentage of the maximal inhibition value obtained in the absence of TNFα/zVAD.fmc.

For assay [1], the target named is T1, hRIPK1 (aa 1-375) fusion protein (Homo sapiens, UniProt Q13546).
T1 construct: hRIPK1 (aa 1-375) fusion protein
T1 sequence (Q13546 1-375): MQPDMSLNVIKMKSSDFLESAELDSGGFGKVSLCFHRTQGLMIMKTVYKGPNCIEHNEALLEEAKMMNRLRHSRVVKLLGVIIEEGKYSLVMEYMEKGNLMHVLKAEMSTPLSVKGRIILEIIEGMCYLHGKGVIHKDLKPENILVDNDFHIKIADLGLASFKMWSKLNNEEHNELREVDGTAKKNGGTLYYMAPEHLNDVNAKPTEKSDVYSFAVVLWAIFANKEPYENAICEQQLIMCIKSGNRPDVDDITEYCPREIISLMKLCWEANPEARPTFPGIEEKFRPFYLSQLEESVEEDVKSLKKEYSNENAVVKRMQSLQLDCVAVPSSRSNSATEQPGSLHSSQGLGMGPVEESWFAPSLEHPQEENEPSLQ
Nature of the assay: Receptor-Interacting Protein Kinase 1 inhibition, ADP Glo assay (conversion of ATP to ADP due to autophosphorylation). It counts as biochemical. To be noted: ATP 50 μM, 30 min preincubation, 240 min incubation, room temperature, DMSO 1%. On the procedure:
The catalytic activity of RIPK1 was measured by monitoring the conversion of Adenosine triphosphate (ATP) to Adenosine diphosphate (ADP) due to autophosphorylation using an ADP-Glo kinase kit (Promega, catalog no. V9104).
In detail, 2 μl recombinantly produced hRIPK1 (aa 1-375) fusion protein (end concentration 3.6 μg/ml) and 2 μl compound (end concentration 33300-1.69 nM; DMSO end concentration 1%) were incubated for 30 minutes at room temperature and then 2 μl ATP (ADP Glo kit, end concentration 50 μM) were added. After another 240 minutes incubation at room temperature, 5 μl Promega ADP-Glo reagent I was added to quench the reaction and deplete unconsumed ATP. After an incubation period of 30 minutes, 10 μl Promega ADP-Glo detection reagent II was added resulting in conversion of ADP to ATP, which generates a light-reaction between luciferase and luciferin. Luminescence was quantified after 30 minutes with a Pherastar FS (BMG LABTECH, Ortenberg).
The adjustment was obtained by nonlinear regression using the Levenberg Marquardt algorithm.
For orientation: In ADP-Glo the light output rises with the ADP produced.

The mark [2] stands for this setting: Homo sapiens, U-937, TNFα/zVAD.fmk induced cell death (necroptosis).
[3] abbreviates: TNFα/zVAD.fmk induced cell death (necroptosis).

For orientation: IC50 means the concentration that inhibits the measured activity by half. A higher IC50 goes with weaker potency in that assay.

The structures appear in SMILES notation.

For `N#Cc1cc(F)cc(N[C@H]2C[C@@H](C(=O)N3OCC[C@H]3c3ccc(F)c(F)c3)C2)c1` [Compound 27, cis-3-((3-((S)-3-(3,4-difluorophenyl)isoxazolidine-2-carbonyl)cyclobutyl)amino)-5-fluorobenzonitrile], the IC50 in the assay on U937 cells (setting [2]) came out at 170 nM; in assay [1] it was 49 nM.
In the case of `N#Cc1cc(F)cc([C@@H]2CCON2C(=O)[C@H]2CC[C@H](CNc3cc(C(N)=O)ncn3)CC2)c1` [Compound 29, trans-6-(((4-((S)-3-(3-cyano-5-fluorophenyl)isoxazolidine-2-carbonyl)cyclohexyl)methyl)amino)pyrimidine-4-carboxamide], the figures for the IC50 (with U937 cells (setting [2]); in assay [1]) were 561 nM and 86 nM, respectively.
For `N#Cc1cc(F)cc([C@@H]2CCON2C(=O)[C@H]2CC[C@H](CNc3cc(C#N)ncn3)CC2)c1` [Compound 30, trans-6-(((4-((S)-3-(3-cyano-5-fluorophenyl)isoxazolidine-2-carbonyl)cyclohexyl)methyl)amino)pyrimidine-4-carbonitrile], in that order: 264 nM and 59 nM.
For `Cn1ccc2c(NC[C@H]3CC[C@H](C(=O)N4OCC[C@H]4c4cc(F)cc(C#N)c4)CC3)ncnc21` [Compound 31, trans-3-fluoro-5-((S)-2-(4-(((7-methyl-7H-pyrrolo[2,3-d]pyrimidin-4-yl)amino)methyl)cyclohexane-1-carbonyl)isoxazolidin-3-yl)benzonitrile], the IC50 in the assay on U937 cells (setting [2]) was 373 nM; in assay [1] it was 110 nM.
As to `N#Cc1cc(F)cc([C@@H]2CCON2C(=O)[C@H]2C[C@@H](Nc3ccc(F)c(C#N)c3)C2)c1` [Compound 32, cis-5-((3-((S)-3-(3-cyano-5-fluorophenyl)isoxazolidine-2-carbonyl)cyclobutyl)amino)-2-fluorobenzonitrile], the IC50 in the assay on U937 cells (setting [2]) was 50 nM; in assay [1], 28 nM.
As for `N#Cc1cc(N[C@H]2C[C@@H](C(=O)N3OCC[C@H]3c3cncc(F)c3)C2)ccc1F` [Compound 33, cis-2-fluoro-5-((3-((S)-3-(5-fluoropyridin-3-yl)isoxazolidine-2-carbonyl)cyclobutyl)amino)benzonitrile], the IC50 is 61 nM in the assay on U937 cells (setting [3]) and 22 nM in assay [1].
As to `N#Cc1cc(NC[C@H]2CC[C@H](C(=O)N3OCC[C@H]3c3cncc(F)c3)CC2)ccc1F` [Compound 34, trans-2-fluoro-5-(((4-((S)-3-(5-fluoropyridin-3-yl)isoxazolidine-2-carbonyl)cyclohexyl)methyl)amino)benzonitrile], the results for the IC50 (with U937 cells (setting [2]); in assay [1]) were 11 nM and 20 nM, respectively.
Turning to `N#Cc1cc(F)cc([C@@H]2CCON2C(=O)[C@H]2CC[C@H](CNc3ccc(F)c(C#N)c3)CC2)c1` [Compound 35, trans-5-(((4-((S)-3-(3-cyano-5-fluorophenyl)isoxazolidine-2-carbonyl)cyclohexyl)methyl)amino)-2-fluorobenzonitrile], the IC50 turned out to be 4 nM in the assay on U937 cells (setting [3]) and 18 nM in assay [1].
For `N#Cc1cc(F)cc(N[C@H]2C[C@@H](C(=O)N3OCC[C@H]3c3cncc(F)c3)C2)c1` [Compound 36, cis-3-fluoro-5-((3-((S)-3-(5-fluoropyridin-3-yl)isoxazolidine-2-carbonyl)cyclobutyl)amino)benzonitrile], the concentration for half-maximal inhibition (IC50) with U937 cells (setting [2]) amounted to 98 nM; in assay [1], 42 nM.
With `N#Cc1cc(F)cc(N[C@H]2C[C@@H](C(=O)N3OCC[C@H]3c3cc(F)cc(C#N)c3)C2)c1` [Compound 37, cis-3-((S)-2-(3-((3-cyano-5-fluorophenyl)amino)cyclobutane-1-carbonyl)isoxazolidin-3-yl)-5-fluorobenzonitrile], the 50% inhibitory concentration (IC50) was found to be 45 nM in the assay with U937 cells (setting [2]) and 34 nM in assay [1].
As to `N#Cc1cc(F)cc(NC[C@H]2CC[C@H](C(=O)N3OCC[C@H]3c3cc(F)cc(C#N)c3)CC2)c1` [Compound 38, trans-3-((S)-2-(4-(((3-cyano-5-fluorophenyl)amino)methyl)cyclohexane-1-carbonyl)isoxazolidin-3-yl)-5-fluorobenzonitrile], the IC50 with U937 cells (setting [2]) was found to be 22 nM; in assay [1] it was 27 nM.
In the same order, the values of `N#Cc1cc(F)cc(N[C@H]2CC[C@@H](C(=O)N3OCC[C@H]3c3cc(F)cc(C#N)c3)CC2)c1` [Compound 39, cis-3-((S)-2-(4-((3-cyano-5-fluorophenyl)amino)cyclohexane-1-carbonyl)isoxazolidin-3-yl)-5-fluorobenzonitrile] are 401 nM and 111 nM.
For `N#Cc1cc(F)cc([C@@H]2CCON2C(=O)[C@H]2C[C@@H](n3cnc4ccccc43)C2)c1` [Compound 40, cis-3-((S)-2-(3-(1H-benzo[d]imidazol-1-yl)cyclobutane-1-carbonyl)isoxazolidin-3-yl)-5-fluorobenzonitrile], in that order: 262 nM and 18 nM.
For `O=C([C@H]1C[C@@H](n2cnc3ccccc32)C1)N1OCC[C@H]1c1cc(F)cc(F)c1` [Compound 41, cis-(3-(1H-benzo[d]imidazol-1-yl)cyclobutyl)((S)-3-(3,5-difluorophenyl)isoxazolidin-2-yl)methanone], in that order: 61 nM and 16 nM.
`O=C([C@H]1C[C@@H](n2cnc3ccccc32)C1)N1OCC[C@H]1c1cncc(F)c1` [Compound 42, cis-(3-(1H-benzo[d]imidazol-1-yl)cyclobutyl)((S)-3-(5-fluoropyridin-3-yl)isoxazolidin-2-yl)methanone]: the IC50 worked out at 921 nM in the assay with U937 cells (setting [2]) and 156 nM in assay [1].
In the same order, the values of `N#Cc1cc(OC[C@H]2CC[C@H](C(=O)N3OCC[C@H]3c3cc(F)cc(F)c3)CC2)ccc1F` [Compound 43, trans-5-((4-((S)-3-(3,5-difluorophenyl)isoxazolidine-2-carbonyl)cyclohexyl)methoxy)-2-fluorobenzonitrile] are 2 nM and 11 nM.
As for `N#Cc1cc(F)cc([C@@H]2CCON2C(=O)[C@H]2CC[C@H](COc3ccc(F)c(C#N)c3)CC2)c1` [Compound 44, trans-5-((4-((S)-3-(3-cyano-5-fluorophenyl)isoxazolidine-2-carbonyl)cyclohexyl)methoxy)-2-fluorobenzonitrile], the IC50 is 5 nM with U937 cells (setting [2]) and 27 nM in assay [1].
On to `N#Cc1cc(OC[C@H]2CC[C@H](C(=O)N3OCC[C@H]3c3cc(F)cc(F)c3)CC2)ncn1` [Compound 45, trans-6-((4-((S)-3-(3,5-difluorophenyl)isoxazolidine-2-carbonyl)cyclohexyl)methoxy)pyrimidine-4-carbonitrile], for which the IC50 amounted to 38 nM in the assay with U937 cells (setting [2]) and 44 nM in assay [1].
For `O=C([C@H]1CC[C@H](COc2cc(Cl)ncn2)CC1)N1OCC[C@H]1c1cc(F)cc(F)c1` [Compound 46, trans-(4-(((6-chloropyrimidin-4-yl)oxy)methyl)cyclohexyl)((S)-3-(3,5-difluorophenyl)isoxazolidin-2-yl)methanone], in that order: 14 nM and 41 nM.
